# Experimental data taken from patent publication US20220133747A1, “ESTROGEN RECEPTOR INHIBITORS AND USES THEROF” (The Regents of the University of California, priority 2018, published 2022).
# “Also recorded” adds a separate entry of the source.
# How the values were obtained:
# [1] = tested on: myeloid-derived suppressor cells (MDSC); assay: Expansion of human MDSC from bone marrow of BC patients, flow cytometry; assay type: cell-based; conditions: 1 μM in normal medium with GM-CSF and IL-6, 5-6 days
# Text: Bone Marrow cells from three breast cancer patients were purified by established methods including red blood cell lysis and Ficoll gradients (1-3,5, 5-7) and then cultured in the presence of IL-6 and GM-CSF in either estrogen-free medium (EFM), normal medium with control vehicle (NM) (which contains estrogens), normal medium with 1-μM fulvestrant (NM+FULV) or normal medium with 1-μM S128 (NM+S128). After 5 days, myeloid-derived cell populations were then identified by following the gating strategy of Ruffell et al. (2) as modified by Svoronos et al. (1). A) Percentage of total MDSC within CD45^+ population.
# Total number of human MDSC derived from bone marrow (BM) of three of three BC patients (P<0.05). Cells were incubated in the presence of GM-CSF and IL-6 for 6 days in either regular RPMI medium+15% FBS (NM) (contains estrogens) or in phenol red-free medium with 15% charcoal coated-dextran treated FBS (EFM)(estrogen-depleted) with or without the addition of 100 nM estradiol-17β (EFM+E2). Normal cell culture medium (NM) drives E2-dependent signaling due to the presence of various estrogens in FBS as well as the estrogenic properties of phenol red. These effects were inhibited by the SERDs fulvestrant (FULV) and S128 at 1 μM
# FIGS. 22A-22B show expansion of MDSCs is dependent on estrogen signaling and reversed by antiestrogens. […]
# Human myeloid-derived suppressor cells were expanded from bone marrow (BM) specimens of BC patients after standard Ficoll gradient purification and red blood cell lysis. […] After 6 days of culture, cells were harvested, stained with a 14 antibody panel including anti-phospho-STAT3 (pSTAT3) and analyzed by flow cytometry with an LSRII with a 5 lasers (UV, violet, blue, green-yellow and red). […]
# 4T1 tumors = assay: 4T1 tumor progression in syngeneic BALB/c mice; assay type: in vivo; conditions: SERD128 50 mg/kg oral gavage, fulvestrant 5 mg/mouse subcutaneous once a week, anti-PD-L1 100 μg every third day, 10-12 days
# Method: Ovariec-tomized 6-wk-old female BALC/c mice supplemented with E2 pellets (0.36 mg/60 day release pellet) were implanted SC with 2.5×10^5 4T1 cells. After tumors reached approx. 200 mm3, mice were randomized and treated with control vehicle (CON), 100 μg of anti-PD-L1 (antibody clone 10F.9G2, BioXCell) Q3 days (PD-L1), 50 mg/kg SERD128 by oral gavage (SERD128) or combined antibody+SERD (PD-L1+SERD128). Tumors were measured Q3 days, with tumor volume calculated as V=(W(2)×L)/2), with mean+SE (*P<0.05, **P<0.01 vs CON).
# FIGS. 23A-23C show estrogen effects on ERα negative tumor growth in vitro and in vivo. […] Female 6-wk-old BALB/c mice, either ovariectomized (ovx) or sham-operated (intact), were inoculated s.c. with 2×10^5 4T1 TNBC cells. Tumor growth was then assessed every 3 days, with tumor volume calculated as V=(l×w×w)/2. ****P≤0.0001. […] 4T1 cells were grown in the presence (+E2) or absence (−E2) of estradiol-17β and increasing concentrations of SERD128 at 10 nM (128-10), 100 nM (128-100) or 1000 nM (128-1000). Cell proliferation was assessed using the Incucyte S3 Live-Cell Analysis system with pictures obtained every 4-6 hours. […] Ovariectomized 6-week-old female syngeneic BALB/c mice were primed with estradiol-17β slow-release pellets prior to tumor cell inoculation. After three days, 4T1 cells were injected in the 4th mammary fat pad (2×10^5 cells). After tumors reached ˜200 mm^3 mice were randomized and treated with control vehicle (CON), […] of anti-PD-L1 antibody every 3rd day (PD-L1 Ab), 50 mg/kg SERD128 via oral gavage (SERD128), and combinations of antibody and SERD128 (SERD128+PD-L1 Ab). Tumors were measured every 3 days, and tumor volume was calculated as V=(W(2)×L)/2). **P<0,01, ****P<0.0001 as compared to control group. n=11-12.
# In further studies to determine the effects of antiestrogen treatment alone or in combination with anti-PD-L1 antibody on murine tumor progression in vivo, ovariectomized 6-week-old female syngeneic BALB/c mice were used (Jackson Laboratory). […] Tumors were measured every 3-4 days, and tumor volume was calculated as above. […]
Structure (SMILES),total MDSC numbers (expansion of MDSC) [1],total MDSC numbers (expansion of MDSC) ([1]; listed as S128),4T1 tumor progression (tumor volume) (4T1 tumors; 50 mg/kg),4T1 tumor progression (tumor volume) (4T1 tumors; listed as S128),4T1 tumor progression (tumor volume) (4T1 tumors)
"C[C@]12C[C@H](Oc3ccc(N)c(C(F)(F)F)c3)[C@@H]3c4ccc(O)cc4CC[C@H]3[C@@H]1CC[C@@H]2O [SERD128, (8S,9S,11S,13S,14S,17S)-11-(4-Amino-3-(trifluoromethyl)phenoxy)-13-methyl-7,8,9,11,12,13,14,15,16,17-decahydro-6H-cyclopenta[a]phenanthrene-3,17-diol]",significantly inhibited; also recorded: inhibits expansion and activation; also recorded: block E2-induced expansion of MDSCs; also recorded: exceeds that of fulvestrant at equivalent doses,substantially decreased; also recorded: inhibited; also recorded: inhibits E2-induced expansion of MDSC,inhibits breast cancer growth in vivo; also recorded: effective in inhibition of 4T1 tumor growth in vivo; also recorded: significant suppression of 4T1 tumor progression in vivo,elicits inhibition of 4T1 TNBC progression in vivo,
"C[C@]12CC[C@@H]3c4ccc(O)cc4C[C@@H](CCCCCCCCC[S+]([O-])CCCC(F)(F)C(F)(F)F)[C@H]3[C@@H]1CC[C@@H]2O (stereo partly drawn) [fulvestrant, reference compound]",substantially decreased; also recorded: significantly inhibited; also recorded: block E2-induced expansion of MDSCs,,,,effective in inhibition of 4T1 tumor growth in vivo
